Data on 20 compounds can be found in US10000773B2, “Cytochrome P450 and use thereof for the enzymatic oxidation of terpenes” (FIRMENICH SA, priority 2011, dated 2018).

Data set [1] relates to vetiver P450s. Briefly: Bioconversion of other monoterpene and sesquiterpene molecules using whole E. coli cells expressing the vetiver P450s and CPR. The format is cell-based, Vetiveria zizanioides (L.) Nash. The settings on record: resting E. coli cells in potassium phosphate buffer as in Example 8. The procedure: The cells were harvested in exponential growing phase, centrifuged and resuspended in 0.5 volume of potassium phosphate buffer 50 mM pH 7.0 supplemented with 5% glycerol or 3% glucose. The substrate ((+)-zizaene) was added to a final concentration of 0.5 mg/ml as mixture composed of 10 mg Tween® 20 (sigma-Aldrich), 10 mg antifoam (Erol DF, PMC Ouvrie, Lesquin, France), 20 mg (+)-zizaene and 1 ml water. The conversion was allowed to proceed for 24 hours at 20° C. with moderate shaking. The media were extracted with 2 volumes of ethyl-acetate and the extracts were analyzed by GCMS on an Agilent 6890 Series GC system connected to an Agilent 5975 mass detector. The GC was equipped with 0.25 mm inner diameter by 30 m SPB-1 capillary column (Supelco, Bellefonte, Pa.). The carrier gas was He at a constant flow of 1 mL/min. The initial oven temperature was 50° C. (1 min hold) followed by a gradient of 10° C./min to 300° C. The identification of the products was based on the comparison of the mass spectra and retention indices with authentic standards and internal databases.
E. coli cells expressing the vetiver P450s and a CPR were prepared, grown and the bioconversions performed using resting cells in potassium phosphate buffer as described in Example 8.
Assays were performed with several terpene molecules and the formation of oxygenated terpene molecules was evaluated using GCMS analysis as described in Example 8.

Data set [2] deals with heterologous P450 and CPR complex. The format is cell-based, E. coli. How it is done: The oxidized products of (+)-zizaene can also be produced in E. coli cells engineered to produce sesquiterpenes from a carbon source such as glucose or glycerol. Plasmids were prepared consisting of the pCWori (Barnes H. J (1996) Method Enzymol. 272, 3-14) plasmid containing an operon composed of the P450, the P450-reductase and the terpene synthase. Two plasmids were thus prepared by inserting an RBS sequence and the optimized sequence encoding for the (+)-zizaene synthase (VzZS) after the stop codon of the CPR sequence in the pCW-2391-521-11 or pCW-2392-521-16.
The VzZS was amplified from pETDuet-VzZS-opt plasmid (as described in WO 2010/134004) using the primers 2401-VzZS-F (SEQ ID NO:33) and 2401-VzZS-R (SEQ ID NO:34). […]
OverExpress™ C43(DE3) E. coli cells (Lucigen® Corporation) were co-transformed with the plasmid pACYC-29258-4506 and the plasmid pCW-2401-521-11 or the plasmid pCW-2402-521-16. […] After 48 hours, the cultures were extracted with 2 volumes of tert-Butyl methyl ether (MTBE) and the extracts analyzed by GCMS as described in Example 8, except for the oven temperature that was initially set at 80° C. with one minute hold, followed by gradient of 10° C./min to 300° C.

In data set [3] the test system is VzP521-16-1. Briefly: Bioconversion of (+)-zizaene using whole E. coli cells expressing VzP521-16-1 and a CPR. The format is cell-based, Vetiveria zizanioides (L.) Nash. The settings on record: 24 hours at 20° C. How it is done:
(§1) The oxidation of (+)-zizaene can be performed using whole E. coli cells expressing the vetiver P450s and a CPR (bioconversion). Zizaene was prepared using engineered E. coli cells following the method described in the patent WO 2010/134004 and using the sesquiterpene synthase with the sequence accession number HI931369.
(§2) E. coli cells (BL21Star™(DE3) E. coli cells (Invitrogen Ltd) or JM109(DE3) (Promega)) were transformed with the plasmids pCW-2391-521-11 or pCW-2392-521-16 or cells were co-transformed with the plasmids pCW-218-521-11 or pCW-218-521-16 and pACYC-tcATR1-opt and were grown in TB medium supplemented with 3% glycerol or LB medium supplemented with 1% glucose. The cultures were incubated at 37° C. until reaching an optical density of 1. The cultures were then transferred to 28° C., 1 mM IPTG and 74 μg/ml δ-aminolevulinic acid were added and the culture were incubated for 24 hours.
(§3) The cells were harvested in exponential growing phase, centrifuged and resuspended in 0.5 volume of potassium phosphate buffer 50 mM pH 7.0 supplemented with 5% glycerol or 3% glucose. […] The media were extracted with 2 volumes of ethyl-acetate and the extracts were analyzed by GCMS on an Agilent 6890 Series GC system connected to an Agilent 5975 mass detector. […]

Data set [4] relates to VzP521-11-1. Briefly: Bioconversion of (+)-zizaene using whole E. coli cells expressing VzP521-11-1 and a CPR. The format is cell-based, Vetiveria zizanioides (L.) Nash. The settings on record: 24 hours at 20° C. The procedure:
as §1, §2, §3

On to `C=C(C)C1CC=C(C)CC1` (single isomer, unassigned; (+)) [(+)-limonene], for which the “bioconversion, formation of oxygenated terpene molecules (GCMS)” value (“bioconversion, formation” below) in data set [1] is “bioconversion was observed”.
With `C=C1[C@H]2CC[C@H](C)[C@@]23CC[C@@H](C3)C1(C)C` [(+)-zizaene], in data set [2], the “oxidation of the sesquiterpene produced in the engineered cells (GCMS)” value is “is oxidized by the heterologous P450 and CPR complex”. For the same compound, the “oxidation products identified by GCMS” value is “khusimol, zizanal and zizanoic acid” in data set [3]; “khusimol, zizanal and zizanoic acid” in data set [4]. Also, the “oxidation of substrate (GCMS)” value in data set [3] (substrate 0.5 mg/ml) and in data set [4] (substrate 0.5 mg/ml) was “oxidation of (+)-zizaene was observed” each time. Also, the “bioconversion, formation” value in data set [1] is reported as “bioconversion was observed”.
With `C=C1CC[C@@H]2[C@H]([C@@H]3[C@H](C)CC[C@H]13)C2(C)C` [alloaromadendrene], the “bioconversion, formation” value in data set [1] is “bioconversion was observed”.
For `CC1=CC[C@@]23C[C@@H]1C(C)(C)[C@@H]2CC[C@H]3C` [alpha-cedrene], the “bioconversion, formation” value in data set [1] was “bioconversion was observed”.
On the same count and under the same terms, to `CC1=CC[C@H]2[C@H]3[C@@H]1[C@]2(C)CC[C@H]3C(C)C` [alpha-copaene] belongs “bioconversion was observed”.
Consider `CC1=CC[C@]23C[C@H]1C(C)(C)[C@@H]2CC[C@H]3C` [alpha-funebrene], for which the “bioconversion, formation” value in data set [1] was “bioconversion was observed”.
In the case of `C/C1=C\CC/C(C)=C/CC(C)(C)/C=C/C1` [alpha-humulene], the “bioconversion, formation” value in data set [1] is “bioconversion was observed”.
As to `CC1=CC[C@@H]2[C@@H]3[C@H]1[C@@]2(C)CCCC3(C)C` [alpha-longipinene], the “bioconversion, formation” value in data set [1] is on record as “bioconversion was observed”.
Consider `CC1=CCC2CC1C2(C)C` (stereo not drawn) [alpha-pinene], for which, in data set [1], the “bioconversion, formation” value was “bioconversion was observed”.
Same read-out and setting: the value for `C=C1CCCC(C)(C)[C@@]12CC=C(C)CC2` [beta-chamigrene] was “bioconversion was observed”; that for `C=C1CC[C@@]23C[C@@H]1C(C)(C)[C@@H]2CC[C@H]3C` [beta-funebrene] was “bioconversion was observed”.
As to `C=C1CCC2CC1C2(C)C` (stereo not drawn) [beta-pinene], the “bioconversion, formation” value in data set [1] is reported as “bioconversion was observed”.
In the case of `C=C(C)[C@H]1C=C2[C@H](C)CC[C@@H]2[C@H](C)CC1` [gamma-gurjunene], the “bioconversion, formation” value in data set [1] is given as “bioconversion was observed”.
Regarding `C=C1[C@H]2C[C@H]3[C@@H](C(C)C)CC[C@]1(C)[C@H]3C2` [isosativene], the “bioconversion, formation” value in data set [1] was “bioconversion was observed”.
Same read-out and setting: to `CC1=C2CC[C@@H](C)[C@H]2[C@H]2[C@@H](CC1)C2(C)C` [ledene] belongs “bioconversion was observed”.
Consider `CC1=CC[C@]2(C)CCCC(C)(C)[C@@]23C[C@@H]13` [thujopsene], for which, in data set [1], the “bioconversion, formation” value is on record as “bioconversion was observed”.
Still for that read-out and setting: the value for `C=C(C)[C@@H]1CCC2=CCC[C@@H](C)[C@]2(C)C1` [valencene] was “bioconversion was observed”; that for (−)-limonene was “bioconversion was observed”.
With alpha gurjunene, the “bioconversion, formation” value in data set [1] is “bioconversion was observed”.
On the same count and under the same terms, to alpha neoclovenene belongs “bioconversion was observed”.
